Measured values taken from patent publication US20170333459A1 (priority 2010, published 2017).
Several values for one entry are separate records, joined by “and”; a condition that tells them apart may be missing. Equal entries are not always repeated.

How the values were obtained:
hOAT3 [1] = biological target: T1, hOAT3 (Homo sapiens, UniProt Q8TCC7); set-up: host or cells: MDCK-II cells, transiently transfected; conditions: reported for hOAT3-mediated uptake; cited from earlier work
T1 sequence (Q8TCC7 1-542): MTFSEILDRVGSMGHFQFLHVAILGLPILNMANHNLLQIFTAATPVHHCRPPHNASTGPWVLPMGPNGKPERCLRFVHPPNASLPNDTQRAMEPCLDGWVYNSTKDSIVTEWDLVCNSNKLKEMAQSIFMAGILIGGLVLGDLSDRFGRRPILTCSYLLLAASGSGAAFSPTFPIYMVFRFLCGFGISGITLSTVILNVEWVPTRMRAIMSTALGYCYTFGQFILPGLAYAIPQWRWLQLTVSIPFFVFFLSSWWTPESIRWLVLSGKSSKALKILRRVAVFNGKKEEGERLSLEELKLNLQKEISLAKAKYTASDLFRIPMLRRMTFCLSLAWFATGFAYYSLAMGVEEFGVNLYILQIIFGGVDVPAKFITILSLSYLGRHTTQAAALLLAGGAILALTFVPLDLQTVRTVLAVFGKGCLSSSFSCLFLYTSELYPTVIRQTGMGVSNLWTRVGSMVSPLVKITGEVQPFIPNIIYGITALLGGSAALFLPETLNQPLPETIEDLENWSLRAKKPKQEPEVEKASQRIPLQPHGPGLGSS

hOAT3 [2] = biological target: T1, hOAT3; conditions: MDCK
monkeypox virus = conditions: monkey, in vivo, iv, 20 mg/kg; cited from earlier work
[3] = biological target: T2, human Organic Anion Transporter 1 (hOAT1) (Homo sapiens, UniProt Q4U2R8)
T2 sequence (Q4U2R8 1-563): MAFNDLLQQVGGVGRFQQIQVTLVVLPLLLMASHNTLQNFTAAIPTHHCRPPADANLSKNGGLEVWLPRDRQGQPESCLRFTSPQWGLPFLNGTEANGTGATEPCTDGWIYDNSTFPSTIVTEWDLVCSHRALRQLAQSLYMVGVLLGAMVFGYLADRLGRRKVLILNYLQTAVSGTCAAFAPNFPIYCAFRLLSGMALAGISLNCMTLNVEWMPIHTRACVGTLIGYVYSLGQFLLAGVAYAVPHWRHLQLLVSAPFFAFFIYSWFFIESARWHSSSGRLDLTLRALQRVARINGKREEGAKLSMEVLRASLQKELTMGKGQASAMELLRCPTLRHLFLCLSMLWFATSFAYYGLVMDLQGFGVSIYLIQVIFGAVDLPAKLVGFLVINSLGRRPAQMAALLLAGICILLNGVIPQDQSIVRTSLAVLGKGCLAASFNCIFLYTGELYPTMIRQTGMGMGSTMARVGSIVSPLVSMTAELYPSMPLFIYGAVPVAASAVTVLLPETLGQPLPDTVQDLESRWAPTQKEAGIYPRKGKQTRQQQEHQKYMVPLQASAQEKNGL

variola virus = conditions: read-out: in vitro potency; cited from earlier work
rabbitpox virus = tested on: rabbitpox virus; set-up: species or system rabbits; conditions: rabbit, in vivo
vaccinia virus = tested on: vaccinia virus; set-up: species or system human; conditions: in vivo
[4] = human, in vivo, po
[5] = human, in vivo, po; remark: listed apart in the source

Row | SMILES | lower uptake efficiency (Vmax/Km) (hOAT3 [1]) [fold] | net uptake in hOAT3 expressing cells (hOAT3 [2]) | survivors (monkeypox virus) | Uptake (Transporter) ([3]; 5 min) | net uptake in hOAT1 expressing cells ([3]; MDCK) | uptake in the presence of OAT inhibitor probenecid ([3]; MDCK) | substrate for hOAT3 (hOAT3 [2]) | effect of 20% serum on uptake ([3]; MDCK) | substrate for hOAT1 ([3]; MDCK) | Net Transporter Uptake ([3]; human, MDCK) [pmol/min/cm^2] | EC50 (variola virus) [nM] | effective single dose (rabbitpox virus) [mg/kg] | preventing mortality (rabbitpox virus) | survivors (rabbitpox virus; 20 mg/kg) | clinical outcome of progressive vaccinia (vaccinia virus) | nephrotoxicity [4] | ST-246 levels [5]
1 | Nc1ccn(C[C@@H](CO)OCP(=O)(O)O)c(=O)n1 [CDV, cidofovir] | > 100 | not enhanced | 7/8 | 116 ± 22 pmol/min/cm^2 and 117 ± 15 pmol/min/cm^2 | enhanced | decreased | – | – | – | – | – | – | – | – | – | – | –
2 | CCCCCCCCCCCCCCCCOCCCOP(=O)(O)CO[C@H](CO)Cn1ccc(N)nc1=O [CMX001, 1-O-hexadecyloxypropyl cidofovir] | – | not enhanced | – | – | not enhanced | – | not a substrate | substantially reduced | not a substrate | −0.3 ± 5.4 | 100 | 20 | effective in preventing mortality | 11/12 | improvement of progressive vaccinia | no signs of nephrotoxicity have been observed | –
3 | O=C(NN1C(=O)[C@@H]2[C@@H]3C=C[C@@H]([C@H]4C[C@@H]34)[C@@H]2C1=O)c1ccc(C(F)(F)F)cc1 [ST-246, reference compound] | – | – | – | – | – | – | – | – | – | – | – | – | – | – | improvement of progressive vaccinia | – | lower
